Format in all cases: functional
For one experiment, the system named is Blumeria graminis. The experiment can be described thus: Fungicidal activity against Blumeria graminis infected on foliar spray based compound pre-treated first-leaf stage 7 day old barley plants assessed as barley powdery mildew disease control level at 250 ppm measured 7 days post fungal exposure relative to untreated control.
In experiment [1] the test system is Puccinia recondita. The experiment can be described thus: Fungicidal activity against Puccinia recondita infected foliar spray based compound pre-treated first-leaf stage wheat plants assessed as wheat leaf rust disease control level at 250 ppm measured 10 days post fungal exposure relative to untreated control.
Another experiment deals with Phytophthora infestans. The experiment can be described thus: Fungicidal activity against Phytophthora infestans zoosporangia infected on foliar spray based compound pre-treated 14 days old tomato plants assessed as tomato late blight disease control level at 250 ppm measured 4 days post fungal exposure relative to untreated control.
The next experiment deals with Botrytis cinerea. The experiment can be described thus: Fungicidal activity against Botryotinia fuckeliana infected foliar spray based compound pre-treated first-leaf stage cucumber plants assessed as cucumber gray mold disease control level at 250 ppm measured 4 to 5 days post fungal exposure relative to untreated control.
A further experiment deals with Rhizoctonia solani. The experiment can be described thus: Fungicidal activity against Rhizoctonia solani infected on foliar spray based compound pre-treated third-leaf stage rice plants assessed as rice sheath blight disease control level at 250 ppm measured 5 days post fungal exposure relative to untreated control.
In experiment [2] the test system is Puccinia recondita. Briefly: Fungicidal activity against Puccinia recondita infected foliar spray based compound pre-treated first-leaf stage wheat plants assessed as wheat leaf rust disease control level at 2 ppm measured 10 days post fungal exposure relative to untreated control.
Experiment [3] has as its system Puccinia recondita. Briefly: Fungicidal activity against Puccinia recondita infected foliar spray based compound pre-treated first-leaf stage wheat plants assessed as wheat leaf rust disease control level at 10 ppm measured 10 days post fungal exposure relative to untreated control.
For experiment [4], the system named is Puccinia recondita. Briefly: Fungicidal activity against Puccinia recondita infected foliar spray based compound pre-treated first-leaf stage wheat plants assessed as wheat leaf rust disease control level at 50 ppm measured 10 days post fungal exposure relative to untreated control.

SMILES strings stand for the structures.

Results on 16 compounds are retold here after ChEMBL document CHEMBL3046510, “Synthesis and Fungicidal Activities of 4,5-Dihydro-7H-pyrano[3,4-c]isoxazole Derivatives” (1999).

`Clc1ccccc1C1OCCc2c1noc2COC1CCCCO1` (stereo not drawn): the Activity in the experiment on Blumeria graminis was 16%; in the experiment on Puccinia recondita [1], 86%; with Phytophthora infestans, 0%; with Botrytis cinerea, 0%; in the experiment on Rhizoctonia solani it was 47%.
As for `OCc1onc2c1CCOC2c1ccccc1Cl` (stereo not drawn), the Activity with Blumeria graminis was 0%; in the experiment with Puccinia recondita [1], 10%; in the experiment with Phytophthora infestans, 0%; with Botrytis cinerea, 0%; with Rhizoctonia solani, 0%.
Regarding `O=Cc1onc2c1CCOC2c1ccccc1Cl` (stereo not drawn), the Activity in the experiment with Blumeria graminis stood at 83%; in the experiment with Puccinia recondita [1], 53%; with Phytophthora infestans, 21%; with Botrytis cinerea, 0%; in the experiment on Rhizoctonia solani, 17%.
The like results for `Clc1ccccc1C1OCCc2c1noc2CBr` (stereo not drawn) were, in that order, 16%, 97%, 7%, 52% and 41%.
With `ON=Cc1onc2c1CCOC2c1ccccc1Cl` (stereo not drawn), the Activity in the experiment on Blumeria graminis was 0%; in the experiment with Puccinia recondita [1] it was 0%; in the experiment on Phytophthora infestans, 42%; in the experiment with Botrytis cinerea it was 5%; in the experiment with Rhizoctonia solani, 52%.
As to `CON=Cc1onc2c1CCOC2c1ccccc1Cl` (stereo not drawn), the Activity came out at 41% with Blumeria graminis; 0% in the experiment on Puccinia recondita [1]; 50% with Phytophthora infestans; 0% with Botrytis cinerea; 29% in the experiment with Rhizoctonia solani.
As for `Clc1ccc(C2OCCc3c2noc3COC2CCCCO2)cc1` (stereo not drawn), the Activity with Blumeria graminis is listed as 0%; in the experiment with Puccinia recondita [1], 0%; in the experiment with Phytophthora infestans, 9%; with Botrytis cinerea, 0%; in the experiment on Rhizoctonia solani it was 0%.
For the compound `OCc1onc2c1CCOC2c1ccc(Cl)cc1` (stereo not drawn), the Activity in the experiment on Blumeria graminis is on record as 3%; in the experiment on Puccinia recondita [1], 0%; with Phytophthora infestans it was 2%; with Botrytis cinerea it was 0%; in the experiment on Rhizoctonia solani, 0%.
`O=Cc1onc2c1CCOC2c1ccc(Cl)cc1` (stereo not drawn): the Activity was 0% in the experiment with Blumeria graminis; 0% with Puccinia recondita [1]; 19% in the experiment with Phytophthora infestans; 30% in the experiment with Botrytis cinerea; 0% with Rhizoctonia solani.
For `Clc1ccc(C2OCCc3c2noc3CBr)cc1` (stereo not drawn), the Activity turned out to be 50% in the experiment with Puccinia recondita [2]; 50% in the experiment with Blumeria graminis; 100% with Puccinia recondita [1]; 22% in the experiment with Phytophthora infestans; 0% with Botrytis cinerea; 0% with Rhizoctonia solani. Moreover, the Activity with Puccinia recondita [3] stood at 53%; in the experiment on Puccinia recondita [4], 90%.
Consider `CCON=Cc1onc2c1CCOC2c1ccccc1Cl` (mixture of isomers), for which the Activity with Blumeria graminis came to 91%; in the experiment with Puccinia recondita [1], 76%; in the experiment with Phytophthora infestans, 78%; in the experiment with Botrytis cinerea, 5%; with Rhizoctonia solani, 64%.
For `C=CCON=Cc1onc2c1CCOC2c1ccccc1Cl` (mixture of isomers), the Activity in the experiment with Blumeria graminis stood at 80%; in the experiment on Puccinia recondita [1] it was 46%; with Phytophthora infestans, 14%; with Botrytis cinerea it was 0%; in the experiment on Rhizoctonia solani, 17%.
The matching figures for `ON=Cc1onc2c1CCOC2c1ccc(Cl)cc1` (mixture of isomers): 0%, 86%, 10%, 0% and 45%.
The matching figures for `CON=Cc1onc2c1CCOC2c1ccc(Cl)cc1` (mixture of isomers): 96%, 12%, 0%, 28% and 65%.
The like results for `CCON=Cc1onc2c1CCOC2c1ccc(Cl)cc1` (mixture of isomers) were, in that order, 81%, 52%, 14%, 10% and 55%.
Turning to `C=CCON=Cc1onc2c1CCOC2c1ccc(Cl)cc1` (mixture of isomers), the Activity with Blumeria graminis is recorded as 100%; in the experiment with Puccinia recondita [1] it was 96%; with Phytophthora infestans, 7%; in the experiment on Botrytis cinerea, 10%; in the experiment with Rhizoctonia solani, 75%.
